Data from patent US11952351B2, “Lipid particle, composition comprising lipid particle, and method for delivering activators to cell” (KABUSHIKI KAISHA TOSHIBA, priority 2018, dated 2024).

Columns and labels:
[1] = tested on: human peripheral blood mononuclear cells PBMCs; assay: vector DNA introduced by liposomes of Table 3, NLuc enzyme activity, PBMC; type: cell-based; details: set of compound (2-01) and DOPE; 0.8 μg DNA/well, 48 hours, FIG. 5
Description: (§1) The amount of vector DNA introduced to cells by the liposomes was quantified on the basis of expression of NLuc genes on vector DNA. For evaluating the expression of NLuc, emission thereof was measured with a microtiter plate reader (infinite F200 [trademark], manufactured by Tecan). As the cells, human T-cell leukemia cell lines Jurkat (purchased from American Type Culture Collection) and human peripheral blood mononuclear cells PBMCs (purchased from LONZA Japan) were adopted. After 100 μL of the Jurkat cell suspension (1×10^6 cells/mL) and 100 μL of the PBMC cell suspension (5×10^6 cells/mL) were individually inoculated on a 96-well plate, 1 μL of each liposome solution shown in Table 1 was added so that the DNA amount might be 0.8 μg/well. Thereafter, the cells were incubated in an incubator at 37° C. for 48 hours under an atmosphere of 5% CO2, and then enzyme activity of NLuc was measured. The measurement of NLuc enzyme activity was carried out by use of NanoGlo Luciferase Assay System ([trademark], manufactured by Promega Corporation) with a luminometer according to the manual attached to the kit. The results are shown in FIG. 4 (Jurkat) and FIG. 5 (PBMC).

[2] = tested on: human T-cell leukemia cell lines Jurkat; assay: vector DNA introduced by liposomes of Table 3, NLuc enzyme activity, Jurkat; type: cell-based; details: DOTAP as lipid forming a membrane; 0.8 μg DNA/well, 48 hours, FIG. 4
Description: as §1

[3] = tested on: Jurkat, MCF-7 and Huh-7 cells; assay: vector DNA introduced by liposomes of Table 7, NLuc enzyme activity; type: cell-based, human; details: MCF-7, Huh-7, Jurkat; 48 hours, FIGS. 7 to 11
Description: The amount of vector DNA introduced to cells by the liposomes was quantified on the basis of expression of NLuc genes on vector DNA. For evaluating the expression of NLuc, emission thereof was measured with a microtiter plate reader (infinite F200 [trademark], manufactured by Tecan). As the cells, human T-cell leukemia cell lines Jurkat, human breast cancer cell lines MCF-7 and human liver cancer cell lines Huh-7 (purchased from American Type Culture Collection) were adopted. After 100 μL of the cell suspension (1×10^6 cells/mL) was inoculated on a 96-well plate, 1 μL of each liposome solution shown in Table 7 was added. Thereafter, the cells were incubated in an incubator at 37° C. for 48 hours under an atmosphere of 5% CO2, and then enzyme activity of NLuc was measured. The measurement of NLuc enzyme activity was carried out by use of NanoGlo Luciferase Assay System ([trademark], manufactured by Promega Corporation) with a luminometer according to the manual attached to the kit. FIGS. 7 to 9 show graphs in which Examples 4-1 and 4-2 are compared. […] FIGS. 10 and 11 show graphs in which Examples 4-2 and 4-3 are compared.

## CCCCCC/C=C/COC(=O)CCCCCCCC(CCCCCCCC(=O)OC/C=C/CCCCCC)CN(C)CCN(C)C [compound (1-01)]
[1]
  efficiency of NLuc gene expression in PBMC cells: higher efficiency of NLuc gene expression in PBMC cells than the compound of the formula (1-02)

## CCCCCC/C=C/COC(=O)CCCCCCCC(CCCCCCCC(=O)OC/C=C/CCCCCC)CCCCN1CCN(C)CC1 [compound (1-02)]
[2]
  efficiency of NLuc gene expression in Jurkat cells: higher efficiency of NLuc gene expression in Jurkat cells than the compound of the formula (1-01)

## CC1=C(/C=C/C(C)=C/C=C/C(C)=C/C(=O)OCCCN(C)CCOCCOCCN(C)CCCOC(=O)/C=C(C)/C=C/C=C(C)/C=C/C2=C(C)CCCC2(C)C)C(C)(C)CCC1 [compound (2-01)]
[3]
  expression efficiencies of NLuc genes (comparison in words): more easily introduced into adherent cells than into floating cells
